Results taken from patent US6740306B2, “Imidazotriazinone-containing compositions for nasal administration” (Bayer Aktiengesellschaft, priority 2002, dated 2004).
Entries after “also recorded” stand apart in the source; their conditions may differ.

Assay: Benzyl alcohol as additive on nasal administration of cGMP PDE inhibitors
Type: in vivo

## OCc1ccccc1 [benzyl alcohol]
  Ability to reduce or prevent the disadvantages occurring on nasal administration of cGMP PDE inhibitors: unable to reduce or prevent the disadvantages; also recorded: unsuitable for overcoming the disadvantages
  Local irritation of the nasal mucosa: led to local irritation of the nasal mucosa
